Measured values: ChEMBL document CHEMBL1201862, “PubChem BioAssay data set” (2004)
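1) Cells in 96-well plates. 2) Compound, 48 h, 5 concentrations. 3) Linear interpolation between surrounding doses. 4) Unreached endpoint = highest concentration. Here, GI50 denotes the concentration required for 50% inhibition of growth.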 Calls of active or inactive are those of the source. Rule as the data show it: active = GI50 up to about 1.1 µM and inactive = higher.

Assays:
Assay in all cases: NCI-60 cell line screen, 48 h
A549 = test system: A549
M14 = test system: M14
U-251 = test system: U-251
HCT-15 = test system: HCT-15
UACC-257 = test system: UACC-257
KM12 = test system: KM12
SNB-75 = test system: SNB-75
TK-10 = test system: TK-10
SK-MEL-28 = test system: SK-MEL-28
HOP-92 = test system: HOP-92
LOX IMVI = test system: LOX IMVI
SK-OV-3 = test system: SK-OV-3
COLO 205 = test system: COLO 205
RXF 393 = test system: RXF 393
A498 = test system: A498
CCRF-CEM = test system: CCRF-CEM
OVCAR-8 = test system: OVCAR-8
786-0 = test system: 786-0
SNB-78 = test system: SNB-78
NCI-H23 = test system: NCI-H23
LXFL 529 = test system: LXFL 529
NCI-H460 = test system: NCI-H460
M19-MEL = test system: M19-MEL
SF-268 = test system: SF-268
HCT-116 = test system: HCT-116
SR = test system: SR
DMS-114 = test system: DMS-114
XF498 = test system: XF498
MOLT-4 = test system: MOLT-4
KM-20L2 = test system: KM-20L2
SK-MEL-5 = test system: SK-MEL-5
NCI-H522 = test system: NCI-H522
SK-MEL-2 = test system: SK-MEL-2
UO-31 = test system: UO-31
EKVX = test system: EKVX
HL-60 = test system: HL-60
OVCAR-3 = test system: OVCAR-3
SF-295 = test system: SF-295
RXF 631 = test system: RXF 631
OVCAR-5 = test system: OVCAR-5
IGROV-1 = test system: IGROV-1
ACHN = test system: ACHN
SNB-19 = test system: SNB-19
OVCAR-4 = test system: OVCAR-4
K562 = test system: K562
UACC-62 = test system: UACC-62
HOP-62 = test system: HOP-62
DMS-273 = test system: DMS-273
RPMI-8226 = test system: RPMI-8226
Malme-3M = test system: Malme-3M
HT-29 = test system: HT-29
NCI-H226 = test system: NCI-H226
SF-539 = test system: SF-539
CAKI-1 = test system: CAKI-1
SW-620 = test system: SW-620
HOP-18 = test system: HOP-18
DLD-1 = test system: DLD-1
SN12C = test system: SN12C
HCC 2998 = test system: HCC 2998
PC-3 = test system: PC-3
MDA-N = test system: MDA-N
T47D = test system: T47D
MDA-MB-435 = test system: MDA-MB-435
MCF7 = test system: MCF7
Hs-578T = test system: Hs-578T
BT-549 = test system: BT-549
DU-145 = test system: DU-145
MDA-MB-231 = test system: MDA-MB-231
NCI/ADR-RES = test system: NCI/ADR-RES

Compound: COC(=O)C1=C(C(=O)OC)N(C(C)C)[C@H]2C(C(=O)OC)=C(C(=O)OC)N(C(C)C)[C@@H]12
- GI50 (A549): > 100 µM (inactive)
- GI50 (M14): > 100 µM (inactive)
- GI50 (U-251): > 100 µM (inactive)
- GI50 (HCT-15): > 100 µM
- GI50 (UACC-257): > 100 µM (inactive)
- GI50 (KM12): > 100 µM (inactive)
- GI50 (SNB-75): 93.3 µM (inactive)
- GI50 (TK-10): > 100 µM (inactive)
- GI50 (SK-MEL-28): > 100 µM (inactive)
- GI50 (HOP-92): > 100 µM (inactive)
- GI50 (LOX IMVI): > 100 µM (inactive)
- GI50 (SK-OV-3): > 100 µM (inactive)
- GI50 (COLO 205): > 100 µM (inactive)
- GI50 (RXF 393): > 100 µM (inactive)
- GI50 (A498): > 100 µM (inactive)
- GI50 (CCRF-CEM): > 100 µM (inactive)
- GI50 (OVCAR-8): > 100 µM (inactive)
- GI50 (786-0): > 100 µM (inactive)
- GI50 (SNB-78): > 100 µM (inactive)
- GI50 (NCI-H23): > 100 µM (inactive)
- GI50 (LXFL 529): > 100 µM (inactive)
- GI50 (NCI-H460): > 100 µM (inactive)
- GI50 (M19-MEL): > 100 µM (inactive)
- GI50 (SF-268): > 100 µM (inactive)
- GI50 (HCT-116): > 100 µM (inactive)
- GI50 (SR): 48 µM (inactive)
- GI50 (DMS-114): > 100 µM (inactive)
- GI50 (XF498): > 100 µM (inactive)
- GI50 (MOLT-4): 71 µM (inactive)
- GI50 (KM-20L2): > 100 µM (inactive)
- GI50 (SK-MEL-5): > 100 µM (inactive)
- GI50 (NCI-H522): > 100 µM (inactive)
- GI50 (SK-MEL-2): > 100 µM (inactive)
- GI50 (UO-31): > 100 µM (inactive)
- GI50 (EKVX): > 100 µM (inactive)
- GI50 (HL-60): 61.5 µM (inactive)
- GI50 (OVCAR-3): 95.1 µM (inactive)
- GI50 (SF-295): > 100 µM (inactive)
- GI50 (RXF 631): > 100 µM (inactive)
- GI50 (OVCAR-5): > 100 µM (inactive)
- GI50 (IGROV-1): > 100 µM (inactive)
- GI50 (ACHN): > 100 µM (inactive)
- GI50 (SNB-19): > 100 µM (inactive)
- GI50 (OVCAR-4): > 100 µM (inactive)
- GI50 (K562): > 100 µM (inactive)
- GI50 (UACC-62): > 100 µM (inactive)
- GI50 (HOP-62): > 100 µM (inactive)
- GI50 (DMS-273): > 100 µM (inactive)
- GI50 (RPMI-8226): 84.1 µM (inactive)
- GI50 (Malme-3M): > 100 µM (inactive)
- GI50 (HT-29): > 100 µM (inactive)
- GI50 (NCI-H226): > 100 µM (inactive)
- GI50 (SF-539): > 100 µM (inactive)
- GI50 (CAKI-1): > 100 µM (inactive)
- GI50 (SW-620): > 100 µM (inactive)
- GI50 (HOP-18): > 100 µM (inactive)
- GI50 (DLD-1): > 100 µM (inactive)
- GI50 (SN12C): > 100 µM (inactive)

Compound: CC1=NN=C(NCCN(C)C)C/C1=C/c1ccccc1Cl
- GI50 (A549): > 100 µM (inactive)
- GI50 (M14): 39.4 µM (inactive)
- GI50 (U-251): > 100 µM (inactive)
- GI50 (HCT-15): > 100 µM
- GI50 (UACC-257): 23.5 µM (inactive)
- GI50 (KM12): > 100 µM (inactive)
- GI50 (SNB-75): 20 µM (inactive)
- GI50 (TK-10): > 100 µM (inactive)
- GI50 (SK-MEL-28): 59.2 µM (inactive)
- GI50 (LOX IMVI): 90.6 µM (inactive)
- GI50 (SK-OV-3): > 100 µM (inactive)
- GI50 (COLO 205): > 100 µM (inactive)
- GI50 (RXF 393): 95.1 µM (inactive)
- GI50 (A498): > 100 µM (inactive)
- GI50 (OVCAR-8): > 100 µM (inactive)
- GI50 (786-0): > 100 µM (inactive)
- GI50 (SNB-78): > 100 µM (inactive)
- GI50 (NCI-H23): > 100 µM (inactive)
- GI50 (LXFL 529): > 100 µM (inactive)
- GI50 (NCI-H460): > 100 µM (inactive)
- GI50 (M19-MEL): > 100 µM (inactive)
- GI50 (SF-268): > 100 µM (inactive)
- GI50 (HCT-116): > 100 µM (inactive)
- GI50 (DMS-114): > 100 µM (inactive)
- GI50 (XF498): 77.3 µM (inactive)
- GI50 (KM-20L2): 58.3 µM (inactive)
- GI50 (SK-MEL-5): 48.6 µM (inactive)
- GI50 (SK-MEL-2): > 100 µM (inactive)
- GI50 (HCC 2998): > 100 µM (inactive)
- GI50 (UO-31): > 100 µM (inactive)
- GI50 (EKVX): > 100 µM (inactive)
- GI50 (OVCAR-3): > 100 µM (inactive)
- GI50 (SF-295): > 100 µM (inactive)
- GI50 (RXF 631): 67.5 µM (inactive)
- GI50 (OVCAR-5): 79.1 µM (inactive)
- GI50 (IGROV-1): > 100 µM (inactive)
- GI50 (ACHN): > 100 µM (inactive)
- GI50 (SNB-19): > 100 µM (inactive)
- GI50 (OVCAR-4): > 100 µM (inactive)
- GI50 (UACC-62): > 100 µM (inactive)
- GI50 (HOP-62): > 100 µM (inactive)
- GI50 (DMS-273): > 100 µM (inactive)
- GI50 (Malme-3M): 27.6 µM (inactive)
- GI50 (HT-29): 45.1 µM (inactive)
- GI50 (SF-539): > 100 µM (inactive)
- GI50 (CAKI-1): 73.5 µM (inactive)
- GI50 (SW-620): > 100 µM (inactive)
- GI50 (HOP-18): 61.7 µM (inactive)
- GI50 (DLD-1): > 100 µM (inactive)
- GI50 (SN12C): > 100 µM (inactive)

Compound: COc1cc2[nH]c3c(c2cc1OC)CCN[C@@]31CC[C@@]2(CC3c4c(cc(OC)c(O)c42)CCN3C)C[C@@H]1OC (some centres not stated)
- GI50 (A549): 63 µM (inactive)
- GI50 (M14): 18 µM (inactive)
- GI50 (U-251): 29.2 µM (inactive)
- GI50 (HCT-15): 30.3 µM
- GI50 (UACC-257): 17.8 µM (inactive)
- GI50 (KM12): 42.6 µM (inactive)
- GI50 (SNB-75): 18.3 µM (inactive)
- GI50 (TK-10): 29.8 µM (inactive)
- GI50 (SK-MEL-28): 17.9 µM (inactive)
- GI50 (PC-3): 48.6 µM (inactive)
- GI50 (HOP-92): 22.2 µM (inactive)
- GI50 (LOX IMVI): 18.8 µM (inactive)
- GI50 (SK-OV-3): 73.6 µM (inactive)
- GI50 (MDA-N): 18.7 µM (inactive)
- GI50 (COLO 205): 16.6 µM (inactive)
- GI50 (T47D): 20.5 µM (inactive)
- GI50 (RXF 393): 21 µM (inactive)
- GI50 (A498): 32 µM (inactive)
- GI50 (CCRF-CEM): 27.2 µM (inactive)
- GI50 (OVCAR-8): 30.9 µM (inactive)
- GI50 (MDA-MB-435): 18.6 µM (inactive)
- GI50 (786-0): 50.7 µM (inactive)
- GI50 (SNB-78): > 85.3 µM (inactive)
- GI50 (MCF7): > 68.2 µM (inactive)
- GI50 (Hs-578T): 19.7 µM (inactive)
- GI50 (NCI-H23): > 79.1 µM (inactive)
- GI50 (LXFL 529): 40.1 µM (inactive)
- GI50 (NCI-H460): 39.4 µM (inactive)
- GI50 (BT-549): 25.2 µM (inactive)
- GI50 (M19-MEL): 19.4 µM (inactive)
- GI50 (SF-268): 47.1 µM (inactive)
- GI50 (HCT-116): 28.6 µM (inactive)
- GI50 (SR): 12.5 µM (inactive)
- GI50 (DMS-114): 20.2 µM (inactive)
- GI50 (XF498): 17.1 µM (inactive)
- GI50 (MOLT-4): 23.4 µM (inactive)
- GI50 (KM-20L2): 34 µM (inactive)
- GI50 (SK-MEL-5): 16.5 µM (inactive)
- GI50 (NCI-H522): 29.2 µM (inactive)
- GI50 (SK-MEL-2): 17.8 µM (inactive)
- GI50 (DU-145): > 81.3 µM (inactive)
- GI50 (HCC 2998): 31.9 µM (inactive)
- GI50 (UO-31): 20.6 µM (inactive)
- GI50 (EKVX): 36.4 µM (inactive)
- GI50 (HL-60): 16.3 µM (inactive)
- GI50 (OVCAR-3): 53.2 µM (inactive)
- GI50 (SF-295): 21.2 µM (inactive)
- GI50 (RXF 631): 7.78 µM (inactive)
- GI50 (OVCAR-5): > 73.3 µM (inactive)
- GI50 (IGROV-1): 66.1 µM (inactive)
- GI50 (ACHN): 46 µM (inactive)
- GI50 (MDA-MB-231): 28.1 µM (inactive)
- GI50 (NCI/ADR-RES): 48.8 µM (inactive)
- GI50 (SNB-19): > 81.1 µM (inactive)
- GI50 (OVCAR-4): 29 µM (inactive)
- GI50 (K562): 20.7 µM (inactive)
- GI50 (UACC-62): 22.9 µM (inactive)
- GI50 (HOP-62): 62.8 µM (inactive)
- GI50 (DMS-273): 41.2 µM (inactive)
- GI50 (RPMI-8226): 25.2 µM (inactive)
- GI50 (Malme-3M): 18.5 µM (inactive)
- GI50 (HT-29): 26.2 µM (inactive)
- GI50 (NCI-H226): 46.5 µM (inactive)
- GI50 (SF-539): 14.9 µM (inactive)
- GI50 (CAKI-1): 35.6 µM (inactive)
- GI50 (SW-620): 32.8 µM (inactive)
- GI50 (HOP-18): > 38.7 µM (inactive)
- GI50 (DLD-1): 53 µM (inactive)
- GI50 (SN12C): 71.9 µM (inactive)
